US12049450B2, “Pyridyloxy-carboxylate derivative and preparation method therefor, herbicidal composition, and use” (Qingdao Kingagroot Chemical Compound Co., Ltd., priority 2018, dated 2024)

Tests used:
Test in all cases: Post-emergence test experiment (greenhouse pot, spray at 2-3 leaf stage)
Type in all cases: in vivo
Conditions in all cases: 1000 g/ha; post-emergence spray at 2-3 leaf stage; assessed after 3 weeks; fresh weight inhibition rate
[1] = tested on: Echinochloa crusgalli
Source text: (§1) The activity level standard of harmful plants destruction (i. e. growth inhibition rate) is as follows: • Level 5: the growth inhibition rate is greater than 85%; • Level 4: the growth inhibition rate is equal to or greater than 60% and less than 85%; • Level 3: the growth inhibition rate is equal to or greater than 40% and less than 60%; • Level 2: the growth inhibition rate is equal to or greater than 20% and less than 40%; • Level 1: the growth inhibition rate is equal to or greater than 5% and less than 20%; • Level 0: the growth inhibition rate is less than 5%;
(§2) The above described growth inhibition rate is fresh weight inhibition rate.
(§3) Post-emergence test experiment: Monocotyledonous and dicotyledonous weed seeds and main crop seeds (i. e. wheat, corn, rice, soybean, cotton, oilseed, millet and sorghum.) were put into a plastic pot loaded with soil. Then covered with 0.5-2 cm soil, the seeds were allowed to grow in good greenhouse environment. The test plants were treated at 2-3 leaf stage 2 weeks after sowing. The test compounds of the invention were dissolved with acetone respectively, then added with tween-80, and using 1.5 liters per hectare of an emulsible concentrate of methyl oleate as a synergist, and diluted by certain amount of water to certain concentration. The solution was sprayed to the plants with a sprayer. Then the plants were cultured for 3 weeks in the greenhouse, and the experiment result of weed controlling effect after 3 weeks was listed in tables 3-4.

[2] = tested on: Abutilon theophrasti
Source text: as §1, §2, §3

[3] = tested on: Galium spurium
Source text: as §1, §2, §3

[4] = tested on: Monochoria vaginalis
Source text: as §1, §2, §3

[5] = tested on: Digitaria sanguinalis
Source text: as §1, §2, §3

SMILES: CC(Oc1nc(F)c(Cl)c(N)c1Cl)C(=O)OCc1ncncn1 (centres unmarked) [Compound 126]
- Activity level (growth inhibition rate) Echinochloa crusgalli [1]: 5 (Level 5: the growth inhibition rate is greater than 85%)
- Activity level (growth inhibition rate) Abutilon theophrasti [2]: 5 (Level 5: the growth inhibition rate is greater than 85%)
- Activity level (growth inhibition rate) Galium spurium [3]: 5 (Level 5: the growth inhibition rate is greater than 85%)
- Activity level (growth inhibition rate) Monochoria Vaginalis [4]: 5 (Level 5: the growth inhibition rate is greater than 85%)
- Activity level (growth inhibition rate) Digitaria sanguinalis [5]: 5 (Level 5: the growth inhibition rate is greater than 85%)

SMILES: CC(Oc1nc(F)c(Cl)c(N)c1Cl)C(=O)SCc1ccccc1F (centres unmarked) [Compound 221]
- Activity level (growth inhibition rate) Echinochloa crusgalli [1]: 5 (Level 5: the growth inhibition rate is greater than 85%)
- Activity level (growth inhibition rate) Abutilon theophrasti [2]: 5 (Level 5: the growth inhibition rate is greater than 85%)
- Activity level (growth inhibition rate) Galium spurium [3]: 5 (Level 5: the growth inhibition rate is greater than 85%)
- Activity level (growth inhibition rate) Monochoria Vaginalis [4]: 5 (Level 5: the growth inhibition rate is greater than 85%)
- Activity level (growth inhibition rate) Digitaria sanguinalis [5]: 5 (Level 5: the growth inhibition rate is greater than 85%)

SMILES: CC(Oc1nc(F)c(Cl)c(N)c1Cl)C(=O)OCc1cnoc1 (centres unmarked) [Compound 146]
- Activity level (growth inhibition rate) Echinochloa crusgalli [1]: 5 (Level 5: the growth inhibition rate is greater than 85%)
- Activity level (growth inhibition rate) Abutilon theophrasti [2]: 5 (Level 5: the growth inhibition rate is greater than 85%)
- Activity level (growth inhibition rate) Galium spurium [3]: 5 (Level 5: the growth inhibition rate is greater than 85%)
- Activity level (growth inhibition rate) Monochoria Vaginalis [4]: 5 (Level 5: the growth inhibition rate is greater than 85%)
- Activity level (growth inhibition rate) Digitaria sanguinalis [5]: 5 (Level 5: the growth inhibition rate is greater than 85%)

SMILES: CC(Oc1ncc(I)c(N)c1I)C(=O)OCc1ccccc1 (centres unmarked) [Compound 13]
- Activity level (growth inhibition rate) Echinochloa crusgalli [1]: 5 (Level 5: the growth inhibition rate is greater than 85%)
- Activity level (growth inhibition rate) Abutilon theophrasti [2]: 5 (Level 5: the growth inhibition rate is greater than 85%)
- Activity level (growth inhibition rate) Galium spurium [3]: 5 (Level 5: the growth inhibition rate is greater than 85%)
- Activity level (growth inhibition rate) Monochoria Vaginalis [4]: 5 (Level 5: the growth inhibition rate is greater than 85%)
- Activity level (growth inhibition rate) Digitaria sanguinalis [5]: 5 (Level 5: the growth inhibition rate is greater than 85%)

SMILES: CC(Oc1nc(F)c(Cl)c(N)c1Cl)C(=O)OCc1ccc2c(c1)OCO2 (centres unmarked) [Compound 176]
- Activity level (growth inhibition rate) Echinochloa crusgalli [1]: 5 (Level 5: the growth inhibition rate is greater than 85%)
- Activity level (growth inhibition rate) Abutilon theophrasti [2]: 5 (Level 5: the growth inhibition rate is greater than 85%)
- Activity level (growth inhibition rate) Galium spurium [3]: 5 (Level 5: the growth inhibition rate is greater than 85%)
- Activity level (growth inhibition rate) Monochoria Vaginalis [4]: 5 (Level 5: the growth inhibition rate is greater than 85%)
- Activity level (growth inhibition rate) Digitaria sanguinalis [5]: 5 (Level 5: the growth inhibition rate is greater than 85%)

SMILES: CC(Oc1nc(F)c(Cl)c(N)c1Cl)C(=O)SCc1ccon1 (centres unmarked) [Compound 145]
- Activity level (growth inhibition rate) Echinochloa crusgalli [1]: 5 (Level 5: the growth inhibition rate is greater than 85%)
- Activity level (growth inhibition rate) Abutilon theophrasti [2]: 5 (Level 5: the growth inhibition rate is greater than 85%)
- Activity level (growth inhibition rate) Galium spurium [3]: 5 (Level 5: the growth inhibition rate is greater than 85%)
- Activity level (growth inhibition rate) Monochoria Vaginalis [4]: 5 (Level 5: the growth inhibition rate is greater than 85%)
- Activity level (growth inhibition rate) Digitaria sanguinalis [5]: 5 (Level 5: the growth inhibition rate is greater than 85%)

SMILES: CCCc1c(OC(C)C(=O)OCc2ccccc2)nc(Br)c(Cl)c1N (centres unmarked) [Compound 18]
- Activity level (growth inhibition rate) Echinochloa crusgalli [1]: 5 (Level 5: the growth inhibition rate is greater than 85%)
- Activity level (growth inhibition rate) Abutilon theophrasti [2]: 5 (Level 5: the growth inhibition rate is greater than 85%)
- Activity level (growth inhibition rate) Galium spurium [3]: 5 (Level 5: the growth inhibition rate is greater than 85%)
- Activity level (growth inhibition rate) Monochoria Vaginalis [4]: 5 (Level 5: the growth inhibition rate is greater than 85%)
- Activity level (growth inhibition rate) Digitaria sanguinalis [5]: 5 (Level 5: the growth inhibition rate is greater than 85%)

SMILES: CC(Oc1nc(Cl)c(C2CC2)c(N)c1Cl)C(=O)OCc1ccccc1 (centres unmarked) [Compound 10]
- Activity level (growth inhibition rate) Echinochloa crusgalli [1]: 5 (Level 5: the growth inhibition rate is greater than 85%)
- Activity level (growth inhibition rate) Abutilon theophrasti [2]: 5 (Level 5: the growth inhibition rate is greater than 85%)
- Activity level (growth inhibition rate) Galium spurium [3]: 5 (Level 5: the growth inhibition rate is greater than 85%)
- Activity level (growth inhibition rate) Monochoria Vaginalis [4]: 5 (Level 5: the growth inhibition rate is greater than 85%)
- Activity level (growth inhibition rate) Digitaria sanguinalis [5]: 5 (Level 5: the growth inhibition rate is greater than 85%)

SMILES: CC(Oc1nc(F)c(Cl)c(N)c1Cl)C(=O)SCc1cc(F)cc(Cl)c1 (centres unmarked) [Compound 81]
- Activity level (growth inhibition rate) Echinochloa crusgalli [1]: 5 (Level 5: the growth inhibition rate is greater than 85%)
- Activity level (growth inhibition rate) Abutilon theophrasti [2]: 5 (Level 5: the growth inhibition rate is greater than 85%)
- Activity level (growth inhibition rate) Galium spurium [3]: 5 (Level 5: the growth inhibition rate is greater than 85%)
- Activity level (growth inhibition rate) Monochoria Vaginalis [4]: 5 (Level 5: the growth inhibition rate is greater than 85%)
- Activity level (growth inhibition rate) Digitaria sanguinalis [5]: 5 (Level 5: the growth inhibition rate is greater than 85%)

SMILES: CC(Oc1nc(F)c(Cl)c(N)c1Cl)C(=O)OCc1cccc(Oc2ccccc2)c1 (racemic) [Compound 114]
- Activity level (growth inhibition rate) Echinochloa crusgalli [1]: 5 (Level 5: the growth inhibition rate is greater than 85%)
- Activity level (growth inhibition rate) Abutilon theophrasti [2]: 5 (Level 5: the growth inhibition rate is greater than 85%)
- Activity level (growth inhibition rate) Galium spurium [3]: 5 (Level 5: the growth inhibition rate is greater than 85%)
- Activity level (growth inhibition rate) Monochoria Vaginalis [4]: 5 (Level 5: the growth inhibition rate is greater than 85%)
- Activity level (growth inhibition rate) Digitaria sanguinalis [5]: 5 (Level 5: the growth inhibition rate is greater than 85%)

SMILES: CC(=O)c1ccc(CCSC(=O)C(C)Oc2nc(F)c(Cl)c(N)c2Cl)cc1 (centres unmarked) [Compound 104]
- Activity level (growth inhibition rate) Echinochloa crusgalli [1]: 5 (Level 5: the growth inhibition rate is greater than 85%)
- Activity level (growth inhibition rate) Abutilon theophrasti [2]: 5 (Level 5: the growth inhibition rate is greater than 85%)
- Activity level (growth inhibition rate) Galium spurium [3]: 5 (Level 5: the growth inhibition rate is greater than 85%)
- Activity level (growth inhibition rate) Monochoria Vaginalis [4]: 5 (Level 5: the growth inhibition rate is greater than 85%)
- Activity level (growth inhibition rate) Digitaria sanguinalis [5]: 5 (Level 5: the growth inhibition rate is greater than 85%)

SMILES: CC(Oc1nc(F)c(Cl)c(N)c1Cl)C(=O)SCc1cccs1 (centres unmarked) [Compound 154]
- Activity level (growth inhibition rate) Echinochloa crusgalli [1]: 5 (Level 5: the growth inhibition rate is greater than 85%)
- Activity level (growth inhibition rate) Abutilon theophrasti [2]: 5 (Level 5: the growth inhibition rate is greater than 85%)
- Activity level (growth inhibition rate) Galium spurium [3]: 5 (Level 5: the growth inhibition rate is greater than 85%)
- Activity level (growth inhibition rate) Monochoria Vaginalis [4]: 5 (Level 5: the growth inhibition rate is greater than 85%)
- Activity level (growth inhibition rate) Digitaria sanguinalis [5]: 5 (Level 5: the growth inhibition rate is greater than 85%)

SMILES: CCn1cnc2ccc(COC(=O)C(C)Oc3nc(F)c(Cl)c(N)c3Cl)cc21 (centres unmarked) [Compound 172]
- Activity level (growth inhibition rate) Echinochloa crusgalli [1]: 5 (Level 5: the growth inhibition rate is greater than 85%)
- Activity level (growth inhibition rate) Abutilon theophrasti [2]: 5 (Level 5: the growth inhibition rate is greater than 85%)
- Activity level (growth inhibition rate) Galium spurium [3]: 5 (Level 5: the growth inhibition rate is greater than 85%)
- Activity level (growth inhibition rate) Monochoria Vaginalis [4]: 5 (Level 5: the growth inhibition rate is greater than 85%)
- Activity level (growth inhibition rate) Digitaria sanguinalis [5]: 5 (Level 5: the growth inhibition rate is greater than 85%)
